Experimental data as given in article PMC12143591, “Unlocking the serine mischarging paradox and inhibiting lactyltransferase activity of AlaRS by a single-point mutation” (Nucleic Acids Research, 2025).
Like-named read-outs stand apart in the source and are kept apart here.

What was measured:
Assay in all cases: PPi release assay (pyrophosphatase, BIOMOL Green, […] nm)
Assay type in all cases: biochemical
[1] = molecular target: T1, AlaRS (AlaRS^WT) (Methylomonas sp. DH-1, UniProt Z9JP01Z3Z1, L219M, form not given); details: 8 uM tRNA-Ala, 200 uM ATP, 40 mM MgCl2, 1 mM DTT, pH 7.5, 37 °C
T1 construct: full-length, pET-28b(+) (BamHI/NotI), Ni-NTA purified from E. coli Rosetta-gami2(DE3)pLysS; tag removal not mentioned

[2] = molecular target: T2, AlaRS (AlaRS^WT) (Methylomonas sp. DH-1, UniProt Z9JP01Z3Z1, L219A, form not given); details: 8 uM tRNA-Ala, 200 uM ATP, 40 mM MgCl2, 1 mM DTT, pH 7.5, 37 °C; read-out: Alanine / K m
T2 construct: full-length, pET-28b(+) (BamHI/NotI), Ni-NTA purified from E. coli Rosetta-gami2(DE3)pLysS; tag removal not mentioned

[3] = molecular target: T3, AlaRS (AlaRS^WT) (Methylomonas sp. DH-1, UniProt Z9JP01Z3Z1, L219F, form not given); details: 8 uM tRNA-Ala, 200 uM ATP, 40 mM MgCl2, 1 mM DTT, pH 7.5, 37 °C; read-out: Alanine / K m
T3 construct: full-length, pET-28b(+) (BamHI/NotI), Ni-NTA purified from E. coli Rosetta-gami2(DE3)pLysS; tag removal not mentioned

[4] = molecular target: T4, AlaRS429 (Methylomonas sp. DH-1, UniProt Z9JP01Z3Z1, L219M, form not given); details: 8 uM tRNA-Ala, 200 uM ATP, 40 mM MgCl2, 1 mM DTT, pH 7.5, 37 °C; read-out: Alanine / K m
T4 construct: residues 1-429 (aminoacylation domain, no editing domain), non-cleavable C-terminal His6 tag, synthetic gene in pET28b(+), E. coli BL21(DE3)

[5] = molecular target: T5, AlaRS (AlaRS^WT) (Methylomonas sp. DH-1, UniProt Z9JP01Z3Z1, V207A/L222M, form not given); details: 8 uM tRNA-Ala, 200 uM ATP, 40 mM MgCl2, 1 mM DTT, pH 7.5, 37 °C; read-out: Alanine / K m
T5 construct: full-length, pET-28b(+) (BamHI/NotI), Ni-NTA purified from E. coli Rosetta-gami2(DE3)pLysS; tag removal not mentioned

Row | Km ([1]; read-out: Alanine / K m) | Km [2] | Km [3] | Km [4] | Km [5] | SMILES | Km ([1]; read-out: Glycine / K m)
1 | 9 ± 1 µM | 9 ± 6 µM | 7 ± 3 µM | 3 ± 1 µM | 145 ± 39 µM | C[C@H](N)C(=O)O [Ala] | 
2 |  |  |  |  |  | NCC(=O)O [Gly] | 7910 ± 3280 µM
